Literature values as cited in patent publication US20140099366A1, “Composition Containing Two Anti-Dementia Drugs” (priority 2005, published 2014).
Where a name gives a salt, the structure may show the parent alone.

Tested on: patients with moderate to severe Alzheimer-type dementia
Settings: added to donepezil hydrochloride already administered, compared to placebo group

CC12CC3CC(C)(C1)CC(N)(C3)C2 [memantine hydrochloride]
cognitive ability and activities of daily living: improved
